According to patent US10577395B2 (priority 2014, dated 2020):
Values after ≈ are worked out from the molar mass of the structure shown. Read-outs that look alike come from different tables or passages of the source.

What was measured:
[1] = system: vancomycin-sensitive strain of E. faecium; settings: Kahne et al., Chem. Rev. 2005; cited from earlier work
[2] = system: VanA VRE; experiment: Antimicrobial assay, MIC for VanA VRE; type: cell-based, E. faecalis and E. faecium
Procedure: (§1) Assays were carried out following the methods of Clinical and Laboratory Standards Institute; Methods for Dilution Antimicrobial Susceptibility Tests for Bacteria That Grow Aerobically; Approved Standard, […].; CLSI document M07-A8; Clinical and Laboratory Standards Institute: Wayne, Pa., 2009.
(§2) This diluted bacterial stock solution was then inoculated into a well of a V-shaped 96-well glass coated microtiter plate, supplemented with serial diluted aliquots of the antibiotic solution DMSO (4 μL), to achieve a total assay volume of 0.1 mL. The plate was then incubated at 37° C. for 18 hours, after which minimal inhibitory concentrations (MICs) were determined by monitoring the cell growth (observed as a pellet) in the wells. The lowest concentration of antibiotic (in μg/mL) capable of eliminating the cell growth in the wells is reported as the MIC.

[3] = relative to D-Ala-D-Ala; cited from earlier work
[4] = system: methicillin and oxacillin-resistant Staphylococcus aureus subsp. aureus (MRSA strain ATCC 43300); experiment: Antimicrobial assay, MIC, MRSA; type: cell-based; settings: for MIC: Staphylococcus aureus
Procedure: as §1, §2

[5] = system: vancomycin-resistant Enterococcus faecalis (VanA VRE, BM4166); experiment: microbe, parasite or virus in culture; type: cell-based; settings: for MIC: Enterococcus faecalis, VRE
Procedure: as §1, §2

[6] = system: vancomycin-resistant Enterococcus faecalis (VanB VRE, strain ATCC 51299); experiment: microbe, parasite or virus in culture; type: cell-based; settings: for MIC: Enterococcus faecalis
Procedure: as §1, §2

[7] = system: vancomycin-sensitive Staphylococcus aureus (VSSA strain ATCC 25923); experiment: Antimicrobial assay, MIC, vancomycin-sensitive S. aureus; type: cell-based; settings: for MIC: Staphylococcus aureus
Procedure: as §1, §2

[8] = system: Enterococcus faecium (VanA VRE, ATCC BAA-2317); experiment: Antimicrobial assay, MIC, VanA E. faecium; type: cell-based; settings: for MIC: Enterococcus faecium
Procedure: as §1, §2

[9] = system: VSSA and MRSA; experiment: Antimicrobial assay, MIC for VSSA and MRSA together; type: cell-based, S. aureus
Procedure: as §1, §2

[10] = system: vancomycin-resistant strain of E. faecium; settings: Kahne et al., Chem. Rev. 2005; cited from earlier work
[11] = system: vancomycin-resistant strain of E. faecium; experiment: MIC reported by Kahne et al., vancomycin-resistant E. faecium; type: cell-based; settings: Kahne data

For `CN[C@H](CC(C)C)C(=O)N[C@H]1C(=O)N[C@@H](CC(N)=O)C(=O)N[C@H]2C(=O)N[C@H]3C(=O)N[C@H](C(=O)N[C@H](C(=O)O)c4cc(O)cc(O)c4-c4cc3ccc4O)[C@H](O)c3ccc(c(Cl)c3)Oc3cc2cc(c3O[C@@H]2O[C@H](CO)[C@@H](O)[C@H](O)[C@H]2O[C@H]2C[C@](C)(N)[C@H](O)[C@H](C)O2)Oc2ccc(cc2Cl)[C@H]1O` [Compound 1, vancomycin, reference compound], the “MIC, vancomycin-sensitive strain of E. faecium” value [1] is given as 1 µg/mL, the “MIC against VanA VRE” value ([2]; stated for VanA VRE) is given as 250 µg/mL (≈ 173 µM) and the “reduction of binding affinity for the altered ligand D-Ala-D-Lac” value [3] is given as 1000 fold. The “MIC, MRSA S. aureus” value ([4]; ATCC 43300) was 0.5 µg/mL (≈ 0.345 µM), the “MIC, MRSA S. aureus, serum concentration 10%” value ([4]; ATCC 43300, 10%) was 0.5 µg/mL (≈ 0.345 µM) and the “MIC, MRSA S. aureus, serum concentration 25%” value ([4]; ATCC 43300, 25%) was 0.5 µg/mL (≈ 0.345 µM). For the same compound, the “MIC, MRSA S. aureus, serum concentration 100%” value ([4]; ATCC 43300, 100%) was 1 µg/mL (≈ 0.69 µM), the “MIC, VanA E. faecalis” value ([5]; BM 4166) was 250 µg/mL (≈ 173 µM) and the “MIC, Van A E. faecalis, serum concentration 10%” value ([5]; BM 4166, 10%) was 250 µg/mL (≈ 173 µM). For the same compound, the “MIC, Van A E. faecalis, serum concentration 25%” value ([5]; BM 4166, 25%) was 250 µg/mL (≈ 173 µM), the “MIC, Van A E. faecalis, serum concentration 100%” value ([5]; BM 4166, 100%) was 500 µg/mL (≈ 345 µM) and the “MIC, VanB E. faecalis” value ([6]; ATCC 51299) was 8 µg/mL (≈ 5.52 µM). The “MIC, Van B E. faecalis, serum concentration 10%” value ([6]; ATCC 51299, 10%) was 4 µg/mL (≈ 2.76 µM), the “MIC, Van B E. faecalis, serum concentration 25%” value ([6]; ATCC 51299, 25%) was 8 µg/mL (≈ 5.52 µM) and the “MIC, Van B E. faecalis, serum concentration 100%” value ([6]; ATCC 51299, 100%) was 32 µg/mL (≈ 22.1 µM). For the same compound, the “MIC, sensitive S. aureus” value ([7]; ATCC 25923) was 0.5 µg/mL (≈ 0.345 µM), the “MIC, sensitive S. aureus, serum concentration 10%” value ([7]; ATCC 25923, 10%) was 0.5 µg/mL (≈ 0.345 µM) and the “MIC, sensitive S. aureus, serum concentration 25%” value ([7]; ATCC 25923, 25%) was 0.5 µg/mL (≈ 0.345 µM). For the same compound, the “MIC, sensitive S. aureus, serum concentration 100%” value ([7]; ATCC 25923, 100%) was 0.5 µg/mL (≈ 0.345 µM), the “MIC, VanA E. faecium” value ([8]; ATCC BAA-2317) was 250 µg/mL (≈ 173 µM) and the “MIC, Van A E. faecium, serum concentration 10%” value ([8]; ATCC BAA-2317, 10%) was 250 µg/mL (≈ 173 µM). The “MIC, Van A E. faecium, serum concentration 25%” value ([8]; ATCC BAA-2317, 25%) was 250 µg/mL (≈ 173 µM), the “MIC, Van A E. faecium, serum concentration 100%” value ([8]; ATCC BAA-2317, 100%) was 500 µg/mL (≈ 345 µM) and the “MIC against VSSA and MRSA” value ([9]; one value stated for both strains) was 0.5 µg/mL (≈ 0.345 µM).
In the case of `CN[C@H](CC(C)C)C(=O)N[C@H]1C(=O)N[C@@H](CC(N)=O)C(=O)N[C@H]2C(=O)NC3C(=O)N[C@H](C(=O)N[C@H](C(=O)O)c4cc(O)cc(O)c4-c4cc3ccc4O)[C@H](O)c3ccc(c(Cl)c3)Oc3cc2cc(c3OC2OC(CO)C(O)[C@H](O)[C@@H]2O[C@H]2CC(C)(NCc3ccc(-c4ccc(Cl)cc4)cc3)[C@H](O)[C@H](C)O2)Oc2ccc(cc2Cl)[C@H]1O` (stereo partly drawn) [Compound 4, N-4-(4′-chlorobiphenyl)methyl vancomycin, reference compound], the “MIC, vancomycin-sensitive strain of E. faecium” value [1] is given as 0.03 µg/mL, the MIC ([2]; Enterococcus, VRE, read-out: MIC against VanA VRE) is given as 2.5 µg/mL (≈ 1.52 µM) and the “improvement in activity against VanA VRE on introduction of the (4-chlorobiphenyl)methyl group” value ([2]; relative to the analogue without CBP group) is given as 100 fold. The MIC ([4]; read-out: MIC, MRSA S. aureus) was 0.03 µg/mL (≈ 0.0182 µM), the MIC ([4]; read-out: MIC, MRSA S. aureus, serum concentration 10%) was 0.03 µg/mL (≈ 0.0182 µM) and the MIC ([4]; read-out: MIC, MRSA S. aureus, serum concentration 25%) was 0.06 µg/mL (≈ 0.0364 µM). For the same compound, the MIC ([4]; read-out: MIC, MRSA S. aureus, serum concentration 100%) was 0.06 µg/mL (≈ 0.0364 µM), the MIC ([5]; read-out: MIC, Van A E. faecalis, serum concentration 10%) was 2.5 µg/mL (≈ 1.52 µM) and the MIC ([5]; read-out: MIC, Van A E. faecalis, serum concentration 25%) was 5 µg/mL (≈ 3.03 µM). It also gave an MIC ([5]; read-out: MIC, Van A E. faecalis, serum concentration 100%) of 10 µg/mL (≈ 6.06 µM), an MIC ([5]; read-out: MIC, VanA E. faecalis) of 2.5 µg/mL (≈ 1.52 µM) and an MIC ([6]; read-out: MIC, Van B E. faecalis, serum concentration 10%) of 0.03 µg/mL (≈ 0.0182 µM). The MIC ([6]; read-out: MIC, Van B E. faecalis, serum concentration 25%) was 0.06 µg/mL (≈ 0.0364 µM), the MIC ([6]; read-out: MIC, Van B E. faecalis, serum concentration 100%) was 0.06 µg/mL (≈ 0.0364 µM) and the MIC ([6]; read-out: MIC, VanB E. faecalis) was 0.03 µg/mL (≈ 0.0182 µM). For the same compound, the MIC ([7]; ATCC25923, read-out: MIC, sensitive S. aureus) was 0.03 µg/mL (≈ 0.0182 µM), the MIC ([7]; ATCC25923, read-out: MIC, sensitive S. aureus, serum concentration 10%) was 0.03 µg/mL (≈ 0.0182 µM) and the MIC ([7]; ATCC25923, read-out: MIC, sensitive S. aureus, serum concentration 25%) was 0.03 µg/mL (≈ 0.0182 µM). It also gave an MIC ([7]; ATCC25923, read-out: MIC, sensitive S. aureus, serum concentration 100%) of 0.06 µg/mL (≈ 0.0364 µM), an MIC ([8]; read-out: MIC, Van A E. faecium, serum concentration 10%) of 2.5 µg/mL (≈ 1.52 µM) and an MIC ([8]; read-out: MIC, Van A E. faecium, serum concentration 25%) of 5 µg/mL (≈ 3.03 µM). For the same compound, the MIC ([8]; read-out: MIC, Van A E. faecium, serum concentration 100%) was 5 µg/mL (≈ 3.03 µM), the MIC ([8]; read-out: MIC, VanA E. faecium) was 2.5 µg/mL (≈ 1.52 µM) and the “MIC, vancomycin-resistant strain of E. faecium” value [10] was 16 µg/mL. The “improvement in activity against VSSA and MRSA on introduction of the (4-chlorobiphenyl)methyl group” value ([9]; Compound 4 vs Compound 1) was 20 fold, the MIC ([9]; Staphylococcus aureus, MRSA, read-out: MIC against VSSA and MRSA) was 0.03 µg/mL (≈ 0.0182 µM) and the “resistant strain less sensitive than the sensitive strain” value [11] was “about 500 times”.
